{
  "source": "ChEMBL document CHEMBL4602730",
  "about": "“In Vitro and in Vivo Evaluation of Membrane-Active Flavone Amphiphiles: Semisynthetic Kaempferol-Derived Antimicrobials against Drug-Resistant Gram-Positive Bacteria” (J Med Chem, 2020)",
  "key": {"Staphylococcus aureus [1]": {"system": "Staphylococcus aureus", "assay": "Induction of cytoplasmic membrane permeabilization in Staphylococcus aureus ATCC 29213 at 1 to 8 times MIC by SYTOX green dye based fluorescence assay", "format": "functional, organism-based"}, "[2]": {"assay": "Cytotoxicity in human MDA-MB-231 cells assessed as reduction in cell viability incubated for 24 hrs by CCK8 assay", "format": "cell-based"}, "Staphylococcus aureus [3]": {"system": "Staphylococcus aureus", "assay": "Induction of bacterial cell membrane integrity loss in Staphylococcus aureus ATCC 29213 incubated for 2 hrs propidium iodide and SYTO9 dye based LIVE/DEAD bacterial viability assay", "format": "functional, organism-based"}, "[4]": {"assay": "Cytotoxicity in human MDA-MB-231 cells assessed as cell viability at 16 times MIC incubated for 24 hrs by CCK8 assay relative to control", "format": "cell-based", "settings": "read-out: Activity"}, "Staphylococcus aureus [5]": {"system": "Staphylococcus aureus", "assay": "Antibacterial activity against Staphylococcus aureus ATCC 29213 assessed as inhibition of bacterial growth incubated for 24 hrs by broth microdilution method", "format": "functional", "settings": "ATCC 29213, 24 h"}, "Staphylococcus aureus [6]": {"system": "Staphylococcus aureus", "assay": "Antibacterial activity against Staphylococcus aureus ATCC 29213 assessed as bacterial cell killing at 4 times MIC incubated for 1 hrs followed by re-plating of cultures and measured after 24 hrs by time kill study relative to control", "format": "functional"}, "Staphylococcus aureus [7]": {"system": "Staphylococcus aureus", "assay": "Induction of cytoplasmic membrane permeabilization in methicillin-resistant Staphylococcus aureus NCTC 10442 at 1 to 8 times MIC by SYTOX green dye based fluorescence assay", "format": "functional, organism-based"}, "Staphylococcus aureus [8]": {"system": "Staphylococcus aureus", "assay": "Antibacterial activity against Staphylococcus aureus ATCC 29213 assessed as suppression of bacterial re-growth at 4 to 8 times MIC incubated for 0.5 to 24 hrs followed by re-plating of cultures and measured after 24 hrs by time kill study relative to control", "format": "functional, organism-based"}, "Staphylococcus aureus [9]": {"system": "Staphylococcus aureus", "assay": "Antibacterial activity against methicillin-resistant Staphylococcus aureus N315 assessed as inhibition of bacterial growth incubated for 24 hrs by broth microdilution method", "format": "functional", "settings": "N315, 24 h"}, "Staphylococcus aureus [10]": {"system": "Staphylococcus aureus", "assay": "Antibacterial activity against methicillin-resistant Staphylococcus aureus NCTC 10442 assessed as inhibition of bacterial growth incubated for 24 hrs by broth microdilution method", "format": "functional", "settings": "NCTC 10442, 24 h"}, "Staphylococcus aureus [11]": {"system": "Staphylococcus aureus", "assay": "Antibacterial activity against Staphylococcus aureus ATCC 29213 assessed as induction of bacterial killing at 4 times MIC incubated for 1 hrs followed by re-plating of cultures and measured after 24 hrs by time kill study relative to control", "format": "functional"}, "Pseudomonas aeruginosa": {"system": "Pseudomonas aeruginosa", "assay": "Antibacterial activity against Pseudomonas aeruginosa assessed as inhibition of bacterial growth incubated for 24 hrs by broth microdilution method", "format": "functional"}, "Escherichia coli": {"system": "Escherichia coli", "assay": "Antibacterial activity against Escherichia coli assessed as inhibition of bacterial growth incubated for 24 hrs by broth microdilution method", "format": "functional"}, "Staphylococcus aureus [12]": {"system": "Staphylococcus aureus", "assay": "Resistance index, ratio of MIC for antibacterial activity against Staphylococcus aureus ATCC 29213 passed over 19 cycles in presence of compound for period of 19 consecutive days by broth microdilution method to MIC for antibacterial activity against Staphylococcus aureus ATCC 29213", "format": "functional"}, "[13]": {"assay": "Induction of hemolysis in rabbit RBC incubated for 1 hr", "format": "cell-based, Oryctolagus cuniculus, Erythrocyte", "settings": "rabbit red blood cells (erythrocytes)"}, "[14]": {"assay": "Cytotoxicity in mouse corneal epithelial cells assessed as cell viability at 16 times MIC incubated for 24 hrs by CCK8 assay relative to control", "format": "cell-based", "settings": "read-out: Activity"}, "Staphylococcus aureus [15]": {"system": "Staphylococcus aureus", "assay": "Antibacterial activity against Staphylococcus aureus ATCC 29213 assessed as induction of bacterial killing at 8 times MIC incubated for 0.5 hrs followed by re-plating of cultures and measured after 24 hrs by time kill study relative to control", "format": "functional"}, "Staphylococcus aureus [16]": {"system": "Staphylococcus aureus", "assay": "Induction of cell surface disruption in Staphylococcus aureus ATCC 29213 at 8 times MIC incubated for 2 hrs by scanning electron microscopy", "format": "functional, organism-based"}, "Staphylococcus aureus [17]": {"system": "Staphylococcus aureus", "assay": "Antibacterial activity against Staphylococcus aureus ATCC 29213 assessed as induction of bacterial killing at 4 times MIC incubated for 8 hrs followed by re-plating of cultures and measured after 24 hrs by time kill study relative to control", "format": "functional"}},
  "note": "Activity calls are given as the source filed them. The calls are words filed in the database; no cut-off is given here.",
  "data": [
    {"smiles": "COC(=O)[C@H](CCCNC(=N)N)NC(=O)COc1c(-c2ccc(OCC=C(C)C)cc2)oc2cc(OCC=C(C)C)cc(O)c2c1=O", "values": [
      {"measurement": "Activity", "setting": "Staphylococcus aureus [1]", "value": "Active"},
      {"measurement": "CC50 at 24 h", "setting": "[2]", "value": "> 50", "unit": "µg/mL"},
      {"measurement": "Activity", "setting": "Staphylococcus aureus [3]", "value": "Active"},
      {"measurement": "viability at 24 h, 16 times MIC", "setting": "[4]", "value": 67.3, "unit": "%"},
      {"measurement": "MIC", "setting": "Staphylococcus aureus [5]", "value": 4.8, "unit": "µM"},
      {"measurement": "Activity", "setting": "Staphylococcus aureus [6]", "value": ">=99.9%"},
      {"measurement": "Activity", "setting": "Staphylococcus aureus [7]", "value": "Active"},
      {"measurement": "Activity", "setting": "Staphylococcus aureus [8]", "value": "Active"},
      {"measurement": "MIC", "setting": "Staphylococcus aureus [9]", "value": 2.4, "unit": "µM"},
      {"measurement": "MIC", "setting": "Staphylococcus aureus [10]", "value": 4.8, "unit": "µM"},
      {"measurement": "LCK", "setting": "Staphylococcus aureus [11]", "value": 3.19},
      {"measurement": "MIC", "setting": "Pseudomonas aeruginosa", "value": "inactive"},
      {"measurement": "MIC", "setting": "Escherichia coli", "value": "inactive"},
      {"measurement": "Ratio", "setting": "Staphylococcus aureus [12]", "value": "<=4"},
      {"measurement": "HC50 at 1 h", "setting": "[13]", "value": 107, "unit": "µM"},
      {"measurement": "viability at 24 h, 16 times MIC", "setting": "[14]", "value": 62.1, "unit": "%"},
      {"measurement": "LCK", "setting": "Staphylococcus aureus [15]", "value": 3.78},
      {"measurement": "Activity", "setting": "Staphylococcus aureus [16]", "value": "Active"}
    ]},
    {"smiles": "CN[C@H](CC(C)C)C(=O)N[C@H]1C(=O)N[C@@H](CC(N)=O)C(=O)N[C@H]2C(=O)N[C@H]3C(=O)N[C@H](C(=O)N[C@H](C(=O)O)c4cc(O)cc(O)c4-c4cc3ccc4O)[C@H](O)c3ccc(c(Cl)c3)Oc3cc2cc(c3O[C@@H]2O[C@H](CO)[C@@H](O)[C@H](O)[C@H]2O[C@H]2C[C@](C)(N)[C@H](O)[C@H](C)O2)Oc2ccc(cc2Cl)[C@H]1O", "note": "[VANCOMYCIN]", "values": [
      {"measurement": "MIC", "setting": "Staphylococcus aureus [5]", "value": 0.54, "unit": "µM"},
      {"measurement": "MIC", "setting": "Staphylococcus aureus [9]", "value": 1.08, "unit": "µM"},
      {"measurement": "MIC", "setting": "Staphylococcus aureus [10]", "value": 1.08, "unit": "µM"},
      {"measurement": "LCK", "setting": "Staphylococcus aureus [17]", "value": 1.18}
    ]}
  ]
}
